Laboratory results reported in US20050197338A1, “Substituted pyrazole urea compounds for the treatment of inflammation” (priority 2003, published 2005).

Molecular target: T1, human IKK-2 (rhIKK-2 homodimer) (Homo sapiens, UniProt O14920)
T1 construct: FLAG (DYKDDDDKD) (C); made in house; host or cells: insect cells (baculovirus, pFastBac)
T1 sequence (O14920 1-756): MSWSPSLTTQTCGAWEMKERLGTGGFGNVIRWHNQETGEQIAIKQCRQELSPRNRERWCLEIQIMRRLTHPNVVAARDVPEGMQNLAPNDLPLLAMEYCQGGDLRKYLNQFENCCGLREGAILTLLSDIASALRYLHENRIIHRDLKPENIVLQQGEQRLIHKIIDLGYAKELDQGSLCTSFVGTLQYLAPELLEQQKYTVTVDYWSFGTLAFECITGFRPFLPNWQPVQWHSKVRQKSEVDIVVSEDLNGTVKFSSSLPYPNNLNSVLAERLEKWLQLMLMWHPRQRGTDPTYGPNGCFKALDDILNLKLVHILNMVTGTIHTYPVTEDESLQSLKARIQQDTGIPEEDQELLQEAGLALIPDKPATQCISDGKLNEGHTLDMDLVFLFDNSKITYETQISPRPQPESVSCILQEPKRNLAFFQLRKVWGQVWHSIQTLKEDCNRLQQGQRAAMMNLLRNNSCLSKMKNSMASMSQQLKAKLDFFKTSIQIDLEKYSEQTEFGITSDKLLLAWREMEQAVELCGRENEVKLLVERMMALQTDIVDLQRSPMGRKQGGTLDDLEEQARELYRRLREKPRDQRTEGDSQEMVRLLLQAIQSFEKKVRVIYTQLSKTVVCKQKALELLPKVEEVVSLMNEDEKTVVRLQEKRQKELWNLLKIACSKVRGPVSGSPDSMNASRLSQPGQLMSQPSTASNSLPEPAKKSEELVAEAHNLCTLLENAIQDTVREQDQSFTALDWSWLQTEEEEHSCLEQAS
Assay: IKK-2 Resin Enzyme Assay (Human IKK-2 Enzyme Assay)
Assay type: biochemical
Conditions: human IKK-2, resin enzyme assay; read-out: IC50 (μM) hIKK-2
Method in brief: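 C-terminally FLAG-tagged human IKK-2 homodimer, baculovirus-expressed in insect cells and anti-FLAG purified. Reaction mix: 5 μM biotinylated IκBα peptide (Ser32/Ser36 region), 1 μM ATP with [γ-33P]ATP, 2 mM MgCl2, 2 mM MnCl2, 10 mM NaF, 1 mM DTT, 25 mM HEPES pH 7.6. Incubated 30 min at 25 °C; IC50 derived.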

Row | IC50 [µM] | SMILES
1 | 0.123 | NC(=O)Nc1cn(-c2ccc(S(N)(=O)=O)cc2)nc1C(N)=O [Example 301, 4-[(aminocarbonyl)amino]-1-[4-(aminosulfonyl)phenyl]-1H-pyrazole-3-carboxamide]
2 | 0.229 | Cc1cc(-n2cc(NC(N)=O)c(C(N)=O)n2)ccc1Cl [Example 302, 4-[(aminocarbonyl)amino]-1-(4-chloro-3-methylphenyl)-1H-pyrazole-3-carboxamide]
3 | 1.4 | NC(=O)Nc1cn(-c2ccc(C(=O)N3CCCCC3)cc2)nc1C(N)=O [Example 303, 4-[(aminocarbonyl)amino]-1-[4-(piperidin-1-ylcarbonyl)phenyl]-1H-pyrazole-3-carboxamide]
4 | 2.19 | Cc1cc(-n2cc(NC(N)=O)c(C(N)=O)n2)ccn1 [Example 322, 4-[(aminocarbonyl)amino]-1-(2-methylpyridin-4-yl)-1H-pyrazole-3-carboxamide]
5 | 0.21 | CCNC(=O)COc1cccc(-c2ccc(-n3cc(NC(N)=O)c(C(N)=O)n3)cc2)c1 [Example 335, 4-[(aminocarbonyl)amino]-1-{3′-[2-(ethylamino)-2-oxoethoxy]-1, 1′-biphenyl-4-yl}-1H-pyrazole-3-carboxamide]
6 | 0.42 | CCN(CC)C(=O)COc1cccc(-c2ccc(-n3cc(NC(N)=O)c(C(N)=O)n3)cc2)c1 [Example 336, 4-[(aminocarbonyl)amino]-1-{3′-[2-(diethylamino)-2-oxoethoxy]-1,1′-biphenyl-4-yl}-1H-pyrazole-3-carboxamide]
7 | 0.75 | NC(=O)Nc1cn(-c2ccc(B(O)O)cc2)nc1C(N)=O [Example 337, 4-{3-(aminocarbonyl)-4-[(aminocarbonyl)amino]-1H-pyrazol-1-yl}phenylboronic acid]
8 | 0.62 | NC(=O)CCc1cccc(-c2ccc(-n3cc(NC(N)=O)c(C(N)=O)n3)cc2)c1 [Example 338, 4-[(aminocarbonyl)amino]-1-[3′-(3-amino-3-oxopropyl)-1,1′-biphenyl-4-yl]-1H-pyrazole-3-carboxamide]
9 | > 20 | NC(=O)Nc1cn(-c2cccc(-c3ccccc3)c2)nc1C(N)=O [Example 339, 4-[(aminocarbonyl)amino]-1-(1,1′-biphenyl-3-yl)-1H-pyrazole-3-carboxamide]
10 | > 20 | Cc1cccc(-c2cccc(-n3cc(NC(N)=O)c(C(N)=O)n3)c2)c1 [Example 340, 4-[(aminocarbonyl)amino]-1-(3′-methyl-1,1′-biphenyl-3-yl)-1H-pyrazole-3-carboxamide]
11 | 0.984 | N#Cc1cccc(-c2cccc(-n3cc(NC(N)=O)c(C(N)=O)n3)c2)c1 [Example 341, 4-[(aminocarbonyl)amino]-1-(3′-cyano-1,1′-biphenyl-3-yl)-1H-pyrazole-3-carboxamide]
12 | > 20 | CCc1ccc(-c2cccc(-n3cc(NC(N)=O)c(C(N)=O)n3)c2)cc1 [Example 342, 4-[(aminocarbonyl)amino]-1-(4′-ethyl-1,1′-biphenyl-3-yl)-1H-pyrazole-3-carboxamide]
13 | 5.18 | COc1cccc(-c2cccc(-n3cc(NC(N)=O)c(C(N)=O)n3)c2)c1 [Example 343, 4-[(aminocarbonyl)amino]-1-(3′-methoxy-1,1′-biphenyl-3-yl)-1H-pyrazole-3-carboxamide]
14 | > 20 | COc1ccc(-c2cccc(-n3cc(NC(N)=O)c(C(N)=O)n3)c2)cc1 [Example 344, 4-[(aminocarbonyl)amino]-1-(4′-methoxy-1,1′-biphenyl-3-yl)-1H-pyrazole-3-carboxamide]
15 | > 20 | Cc1cc(F)ccc1-c1cccc(-n2cc(NC(N)=O)c(C(N)=O)n2)c1 [Example 345, 4-[(aminocarbonyl)amino]-1-(4′-fluoro-2′-methyl-1,1′-biphenyl-3-yl)-1H-pyrazole-3-carboxamide]
16 | > 20 | Cc1cc(-c2cccc(-n3cc(NC(N)=O)c(C(N)=O)n3)c2)ccc1F [Example 346, 4-[(aminocarbonyl)amino]-1-(4′-fluoro-3′-methyl-1,1′-biphenyl-3-yl)-1H-pyrazole-3-carboxamide]
17 | > 20 | NC(=O)Nc1cn(-c2cccc(-c3cccc(Cl)c3)c2)nc1C(N)=O [Example 347, 4-[(aminocarbonyl)amino]-1-(3′-chloro-1,1′-biphenyl-3-yl)-1H-pyrazole-3-carboxamide]

Row | IC50 [µM] | SMILES
18 | > 20 | NC(=O)Nc1cn(-c2cccc(-c3ccc(Cl)cc3)c2)nc1C(N)=O [Example 348, 4-[(aminocarbonyl)amino]-1-(4′-chloro-1,1′-biphenyl-3-yl)-1H-pyrazole-3-carboxamide]
19 | > 20 | NC(=O)Nc1cn(-c2cccc(-c3ccc(F)c(F)c3)c2)nc1C(N)=O [Example 349, 4-[(aminocarbonyl)amino]-1-(3′,4′-difluoro-1,1′-biphenyl-3-yl)-1H-pyrazole-3-carboxamide]
20 | > 20 | NC(=O)Nc1cn(-c2cccc(-c3cc(F)cc(F)c3)c2)nc1C(N)=O [Example 350, 4-[(aminocarbonyl)amino]-1-(3′,5′-difluoro-1,1′-biphenyl-3-yl)-1H-pyrazole-3-carboxamide]
21 | > 20 | CC(=O)c1cccc(-c2cccc(-n3cc(NC(N)=O)c(C(N)=O)n3)c2)c1 [Example 351, 1-(3′-acetyl-1,1′-biphenyl-3-yl)-4-[(aminocarbonyl)amino]-1H-pyrazole-3-carboxamide]
22 | > 20 | CC(C)c1cccc(-c2cccc(-n3cc(NC(N)=O)c(C(N)=O)n3)c2)c1 [Example 352, 4-[(aminocarbonyl)amino]-1-(3′-isopropyl-1,1′-biphenyl-3-yl)-1H-pyrazole-3-carboxamide]
23 | > 20 | CC(C)c1ccc(-c2cccc(-n3cc(NC(N)=O)c(C(N)=O)n3)c2)cc1 [Example 353, 4-[(aminocarbonyl)amino]-1-(4′-isopropyl-1,1′-biphenyl-3-yl)-1H-pyrazole-3-carboxamide]
24 | > 20 | CCOc1cccc(-c2cccc(-n3cc(NC(N)=O)c(C(N)=O)n3)c2)c1 [Example 354, 4-[(aminocarbonyl)amino]-1-(3′-ethoxy-1,1′-biphenyl-3-yl)-1H-pyrazole-3-carboxamide]
25 | 6.15 | CCOc1ccc(-c2cccc(-n3cc(NC(N)=O)c(C(N)=O)n3)c2)cc1 [Example 355, 4-[(aminocarbonyl)amino]-1-(4′-ethoxy-1,1′-biphenyl-3-yl)-1H-pyrazole-3-carboxamide]
26 | > 20 | CSc1ccccc1-c1cccc(-n2cc(NC(N)=O)c(C(N)=O)n2)c1 [Example 356, 4-[(aminocarbonyl)amino]-1-[2′-(methylthio)-1,1′-biphenyl-3-yl]-1H-pyrazole-3-carboxamide]
27 | > 20 | CSc1cccc(-c2cccc(-n3cc(NC(N)=O)c(C(N)=O)n3)c2)c1 [Example 357, 4-[(aminocarbonyl)amino]-1-[3′-(methylthio)-1,1′-biphenyl-3-yl]-1H-pyrazole-3-carboxamide]
28 | 8.57 | CSc1ccc(-c2cccc(-n3cc(NC(N)=O)c(C(N)=O)n3)c2)cc1 [Example 358, 4-[(aminocarbonyl)amino]-1-[4′-(methylthio)-1,1′-biphenyl-3-yl]-1H-pyrazole-3-carboxamide]
29 | 1.18 | COc1ccc(-c2cccc(-n3cc(NC(N)=O)c(C(N)=O)n3)c2)cc1F [Example 359, 4-[(aminocarbonyl)amino]-1-(3′-fluoro-4′-methoxy-1,1′-biphenyl-3-yl)-1H-pyrazole-3-carboxamide]
30 | > 20 | NC(=O)Nc1cn(-c2cccc(-c3cccc4ccccc34)c2)nc1C(N)=O [Example 360, 4-[(aminocarbonyl)amino]-1-[3-(1-naphthyl)phenyl]-1H-pyrazole-3-carboxamide]
31 | > 20 | NC(=O)Nc1cn(-c2cccc(-c3ccc(F)c(Cl)c3)c2)nc1C(N)=O [Example 361, 4-[(aminocarbonyl)amino]-1-(3′-chloro-4′-fluoro-1,1′-biphenyl-3-yl)-1H-pyrazole-3-carboxamide]
32 | > 20 | CC(C)(C)c1ccc(-c2cccc(-n3cc(NC(N)=O)c(C(N)=O)n3)c2)cc1 [Example 362, 4-[(aminocarbonyl)amino]-1-(4′-tert-butyl-1,1′-biphenyl-3-yl)-1H-pyrazole-3-carboxamide]
33 | > 20 | CC(C)Cc1ccc(-c2cccc(-n3cc(NC(N)=O)c(C(N)=O)n3)c2)cc1 [Example 363, 4-[(aminocarbonyl)amino]-1-(4′-isobutyl-1,1′-biphenyl-3-yl)-1H-pyrazole-3-carboxamide]
34 | 16.2 | CCCCc1ccc(-c2cccc(-n3cc(NC(N)=O)c(C(N)=O)n3)c2)cc1 [Example 364, 4-[(aminocarbonyl)amino]-1-(4′-butyl-1,1′-biphenyl-3-yl)-1H-pyrazole-3-carboxamide]
